Assay results taken from patent publication EP4620466A1, “TRIMETHOXYSTYRYL DERIVATIVES FOR USE IN THE TREATMENT OF PACLITAXEL-RESISTANT CANCER” (Instituto de Investigación Biomédica de Salamanca De la …, priority 2024, dated 2025).

What follows are molecules tested on HeLa cells (assay: Cell proliferation assay (XTT), cytostatic activity). Conditions: 72-h treatment, XTT cell proliferation kit.
Assay type: cell-based
Method: […] cells were seeded in 96-well plates and incubated in the presence or the absence of the indicated compounds at concentrations ranging from 10^-5 to 10^-12 M. The cytostatic activity was measured after 72-h treatments using the XTT (sodium 3'-[1-(phenylaminocarbonyl)-3,4-tetrazolium]-bis(4- methoxy-6-nitro)-benzenesulfonic acid hydrate) cell proliferation kit (Roche Molecular Biochemicals; Mannheim, Germany) following the manufacturer's specifications. Each condition was seeded in triplicate, and experiments were repeated three times to calculate IC values by non-linear regression fitting the data.

Row | Molecule | IC50
1 | COc1ccc(C(C)c2ccc3c(c2)c(C=NN)cn3C)c(OC)c1OC (stereo not shown) [Compound 22] | 420 nM
2 | 5-(N-(3,5-dimethoxyphenyl)sulfamoyl)-1-methyl-1H-indole-3-carboxamide [Compound 54] | 1770 nM
3 | 1-Methyl-5-[1-(2,3,4-trimethoxyphenyl)vinyl]-1H-indol-3-ylmethanol [Compound 18] | 300 nM
4 | COc1cc(C(=NO)c2ccc3c(ccn3C)c2)cc(OC)c1OC (mixture of isomers) [Compound 7, (E/Z)-(I-Methyl-1H-indol-5-yl)(3,4,5-trimethoxyphenyl)methanone oxime] | 360 nM
5 | C=C(c1cc(Cl)nc(SC)c1)c1ccc2c(c1)c(C#N)cn2C [Compound 71] | 100 nM
6 | 1-Methyl-5-(2,3,4- trimethoxybenzoyl)-1H-indole-3-carbonitrile [Compound 26] | > 1000 nM

Same assay, conditions: Homo sapiens, 72-h treatment, XTT cell proliferation kit

Row | Molecule | IC50
7 | CSc1cc(C(=O)c2ccc3c(c2)c(C=O)cn3C)cc(N(C)C)n1 [Compound 92, 5-(2-(dimethylamino)-6-(methylthio)isonicotinoyl)-1-methyl-1H-indole-3-carbaldehyde] | > 1000 nM
8 | C=C(c1cc(OC)c(OC)c(OC)c1)c1ccc2c(c1)c(C(=O)O)cn2C [Compound 16, 1-Methyl-5-(1-(3,4,5-trimethoxyphenyl)vinyl)-1H-indole-3-carboxylic acid] | > 10000 nM
9 | COc1cc(C(=O)c2ccc3c(c2)c(C=O)cn3C)cc(SC)n1 [Compound 84, 5-(2-methoxy-6-(methylsulfanyl)isonicotinoyl)-1-methyl-1H-indole-3-carbaldehyde] | > 1000 nM
10 | C=C(c1cc(Cl)nc(Cl)c1)c1ccc2c(c1)c(C=NO)cn2C [Compound 61, 5-(1-(2,6-dichloropyridin-4-yl)vinyl)-1-methyl-1H-indole-3-carbaldehyde oxime] | > 1000 nM
11 | CN(C)c1cc(C(=O)c2ccc3c(ccn3C)c2)cc(Cl)n1 [Compound 98, (2-chloro-6-(dimethylamino)pyridin-4-yl)(1-methyl-1H-indol-5-yl)methanone] | > 1000 nM
12 | CSc1cc(C(=O)c2ccc3c(c2)c(C=O)cn3C)cc(SC)n1 [Compound 76, 5-(2,6-bis(methylsulfanyl)isonicotinoyl)-1-methyl-1H-indole-3-carbaldehyde] | > 1000 nM
13 | COc1cc(C(=O)c2ccc3c(c2)c(C(=O)O)cn3C)cc(OC)c1OC [Compound 15, 1-Methyl-5-(3,4,5-trimethoxybenzoyl)-1H-indole-3-carboxylic acid] | 7000 nM
14 | C=C(c1cc(Cl)nc(SC)c1)c1ccc2c(c1)c(C(N)=O)cn2C [Compound 70, 5-(1-(2-chloro-6-(methylsulfanyl)pyridin-4-yl)vinyl)-1-methyl-1H indole-3-carboxamide] | > 1000 nM
15 | C=C(c1cc(Cl)nc(N(C)C)c1)c1ccc2c(c1)c(C=O)cn2C [Compound 101, 5-(1-(2-chloro-6-(dimethylamino)pyridin-4-yl)vinyl)-1-methyl-1H-indole-3-carbaldehyde] | > 1000 nM
16 | C=C(c1cc(SC)nc(SC)c1)c1ccc2c(c1)c(C(=O)O)cn2C [Compound 80, 5-(1-(2,6-Bis(methylsulfanyl)pyridin-4-yl)vinyl)-1-methyl-1H-indole-3-carboxylic acid] | > 1000 nM
17 | Cn1ccc2cc(C(=O)c3cc(Cl)nc(Cl)c3)ccc21 [Compound 55, (2,6-dichloropyridin-4-yl)(1-methyl-1H-indol-5-yl)methanone] | 800 nM
18 | COc1ccc(C(=O)c2ccc3c(c2)c(C=O)cn3C)c(OC)c1OC [Compound 10, 1-Methyl-5-(2,3,4-trimethoxybenzoyl)-1H-indole-3-carbaldehyde] | 780 nM
19 | COc1cc(/C=C\c2ccc3c(ccn3C)c2)cc(OC)c1OC [Compound 27, (Z)-1-Methyl-5-[2-(3,4,5-trimethoxyphenyl)vinyl)-1H-indole] | 250 nM
20 | COc1ccc(C(O)c2ccc3c(ccn3C)c2)c(OC)c1OC (stereo not shown) [Compound 2, (1-methyl-1H-indol-5-yl)(2,3,4-trimethoxyphenyl)methanol] | > 1000 nM
21 | C=C(c1cc(OC)nc(SC)c1)c1ccc2c(c1)c(C(=O)O)cn2C [Compound 86, 5-(1-(2-methoxy-6-(methylsulfanyl)pyridin-4-yl)vinyl)-1-methyl-1H-indole-3-carboxylic acid] | > 1000 nM
22 | COc1cc(C(=O)c2ccc3c(c2)c(C#N)cn3C)cc(SC)n1 [Compound 87, 5-(2-methoxy-6-(methylsulfanyl)isonicotinoyl)-1-methyl-1H-indole-3-carbonitrile] | 800 nM
23 | C=C(c1cc(SC)nc(SC)c1)c1ccc2c(c1)c(C#N)cn2C [Compound 79, 5-(1-(2,6-bis(methylsulfanyl)pyridin-4-yl)vinyl)-1-methyl-1H-indole-3-carbonitrile] | 600 nM

The next lines start with the values.

Row | IC50 | Molecule
24 | 310 nM | C=C(c1cc(OC)c(OC)c(OC)c1)c1ccc2c(c1)c(CO)cn2C [Compound 17, 1-Methyl-5-[1-(3,4,5-trimethoxyphenyl)vinyl]-1H-indol-3-ylmethanol]
25 | 40 nM | C=C(c1cc(Cl)nc(Cl)c1)c1ccc2c(ccn2C)c1 [Compound 56, 5-(1-(2,6-dichloropyridin-4-yl)vinyl)-1-methyl-1H-indole]
26 | 6.2 nM | C=C(c1cc(OC)c(OC)c(OC)c1)c1ccc2c(c1)c(C=NO)cn2C [Compound 19, 1-Methyl-5-[1-(3,4,5-trimethoxyphenyl)vinyl]-1H-indole-3-carbaldehyde oxime]
27 | 300 nM | C=C(c1cc(SC)nc(N(C)C)c1)c1ccc2c(c1)c(C=O)cn2C [Compound 93, 5-(1-(2-(dimethylamino)-6-(methylthio)pyridin-4-yl)vinyl)-1-methyl-1H-indole-3-carbaldehyde]
28 | 38 nM | C=C(c1cc(OC)c(OC)c(OC)c1)c1ccc2c(c1)c(C=NN)cn2C [Compound 21, (1-Methyl-5-[1-(3,4,5-trimethoxyphenyl)vinyl]-1H-indol-3-yl)methylene hydrazine]
29 | 300 nM | CSc1cc(C(=O)c2ccc3c(ccn3C)c2)cc(Cl)n1 [Compound 64, (2-chloro-6-(methylthio)pyridin-4-yl)(1-methyl-1H-indol-5-yl)methanone]
30 | 17 nM | COc1ccc(C(=O)c2ccc3c(ccn3C)c2)c(OC)c1OC [Compound 4, (1-methyl-1H-indol-5-yl)(2,3,4-trimethoxyphenyl)methanone]
31 | 34 nM | C=C(c1ccc2c(c1)c(C=NO)cn2C)c1ccc(OC)c(OC)c1OC [Compound 20, 1-Methyl-5-[1-(2,3,4-trimethoxyphenyl)vinyl]-1H-indol-3-carbaldehyde oxime]
32 | 20 nM | C=C(c1cc(OC)c(OC)c(OC)c1)c1ccc2c(c1)c(C=O)cn2C [Compound 11, 1-Methyl-5-[1-(3,4,5-trimethoxyphenyl)vinyl]-1H-indole-3-carbaldehyde]
33 | 60 nM | CSc1cc(C(=NO)c2ccc3c(c2)c(C#N)cn3C)cc(Cl)n1 (mixture of isomers) [Compound 69, (E/Z)-5-((2-chloro-6-(methylsulfanyl)pyridin-4-yl)(hydroxyimino)methyl)-1-methyl-1H-indole-3-carbonitrile]
34 | 200 nM | COc1cc(C(=NO)c2ccc3c(ccn3C)c2)cc(SC)n1 [Compound 83, (2-methoxy-6-(methylsulfanyl)pyridin-4-yl)(1-methyl-1H-indol-5-yl)methanone oxime]
35 | 76 nM | COc1ccc(/C(=N\O)c2ccc3c(ccn3C)c2)c(OC)c1OC [Compound 8, Z-(1-methyl-1H-indol-5-yl)(2,3,4-trimethoxyphenyl)methanone oxime]
36 | 500 nM | CSc1cc(C(=O)c2ccc3c(ccn3C)c2)cc(N(C)C)n1 [Compound 89, (2-(dimethylamino)-6-(methylthio)pyridin-4-yl)(1-methyl-1H-indol-5-yl)methanone]
37 | 500 nM | C=C(c1cc(SC)nc(SC)c1)c1ccc2c(ccn2C)c1 [Compound 74, 5-(1-(2,6-Bis(methylsulfanyl)pyridin-4-yl)vinyl)-1-methyl-1H-indole]
38 | 32 nM | C=C(c1ccc2c(c1)c(C#N)cn2C)c1ccc(OC)c(OC)c1OC [Compound 24, 1-Methyl-5-[1-(2,3,4-trimethoxyphenyl)vinyl]-1H-indole-3-carbonitrile]
39 | 600 nM | CSc1cc(C(=NO)c2ccc3c(ccn3C)c2)cc(N(C)C)n1 [Compound 91, (2-(Dimethylamino)-6-(methylthio)pyridin-4-yl)(1-methyl-1H-indol-5-yl)methanone oxime]
40 | 25 nM | COc1cc(C(=O)c2ccc3c(ccn3C)c2)cc(OC)c1OC [Compound 3, (1-methyl-1H-indol-5-yl)(3,4,5-trimethoxyphenyl)methanone]
41 | 50 nM | C=C(c1cc(Cl)nc(Cl)c1)c1ccc2c(c1)c(C(N)=O)cn2C [Compound 63, 5-(1-(2,6-dichloropyridin-4-yl)vinyl)-1-methyl-1H-indole-3-carboxamide]
42 | 100 nM | C=C(c1cc(Cl)nc(N(C)C)c1)c1ccc2c(ccn2C)c1 [Compound 99, 6-chloro-N,N-dimethyl-4-(1-(1-methyl-1H-indol-5-yl)vinyl)pyridin-2-amine]
43 | 80 nM | C=C(c1cc(Cl)nc(Cl)c1)c1ccc2c(c1)c(C#N)cn2C [Compound 62, 5-(1-(2,6-dichloropyridin-4-yl)vinyl)-1-methyl-1H-indole-3-carbonitrile]
44 | 600 nM | C=C(c1cc(SC)nc(N(C)C)c1)c1ccc2c(c1)c(C(N)=O)cn2C [Compound 97, 5-(1-(2-(dimethylamino)-6-(methylthio)pyridin-4-yl)vinyl)-1-methyl-1H-indole-3-carboxamide]
45 | 200 nM | COc1cc(C(=O)c2ccc3c(ccn3C)c2)cc(SC)n1 [Compound 81, (2-methoxy-6-(methylthio)pyridin-4-yl)(1-methyl-1H-indol-5-yl)methanone]
46 | 32 nM | C=C(c1ccc2c(c1)c(C=O)cn2C)c1ccc(OC)c(OC)c1OC [Compound 12, 1-Methyl-5-[1-(2,3,4-trimethoxyphenyl)vinyl]-1H-indole-3-2carbaldehyde]
